# Key:
# Assay in all cases: relative viability (nuclei count vs DMSO), 5 days (fraction); higher = more cells survive
# [1] = compound: CN1C=C(C2=CC=CC=C21)/C=C\3/C4=C(C=CC=N4)NC3=O + O=C(CCCCCCC(=O)Nc1ccccc1)NO [Vorinostat] (partner 1 µM)
# In short: (§1)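 Cells from lung cancer lines were seeded into 1536-well plates and, one day later, dosed by pin tool. Treatments were either a single drug or a fixed dose of an anchor drug with five library-drug doses (not always all listed) in √10 steps. After 5 days, nuclei were stained in a one-step fixation (final 0.05% Triton X-100, 1% formaldehyde, 1 ug/ml Hoechst) and counted on 4× images, and relative viability is the treated-to-vehicle nuclei ratio, as the median of duplicate plates.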
# [2] = compound: CN1C=C(C2=CC=CC=C21)/C=C\3/C4=C(C=CC=N4)NC3=O + N=C(N)NC(=N)NCCc1ccccc1 [Phenformin] (partner 250 µM)
# In short: as §1
# [3] = compound: CC(=O)Nc1cccc(-n2c(=O)n(C3CC3)c(=O)c3c(Nc4ccc(I)cc4F)n(C)c(=O)c(C)c32)c1 [Trametinib] + COc1cccc2cc(-c3nc([C@H]4CC[C@H](C(=O)O)CC4)n4ncnc(N)c34)[nH]c12 [OSI-027] (partner 0.5 µM)
# In short: as §1
# [4] = compound: CN1C=C(C2=CC=CC=C21)/C=C\3/C4=C(C=CC=N4)NC3=O + COc1cccc2cc(-c3nc([C@H]4CC[C@H](C(=O)O)CC4)n4ncnc(N)c34)[nH]c12 [OSI-027] (partner 0.5 µM)
# In short: as §1
cell line,measurement,setting,value
UMC-11,relative viability,[1]; first compound 0.02 µM,0.323
same,relative viability,[1]; first compound 0.06325 µM,0.301
same,relative viability,[1]; first compound 0.2 µM,0.322
same,relative viability,[1]; first compound 0.6325 µM,0.391
same,relative viability,[1]; first compound 2 µM,0.36
same,relative viability,[2]; first compound 0.02 µM,0.299
same,relative viability,[2]; first compound 0.06325 µM,0.306
same,relative viability,[2]; first compound 0.2 µM,0.265
same,relative viability,[2]; first compound 0.6325 µM,0.369
same,relative viability,[2]; first compound 2 µM,0.34
same,relative viability,[3]; first compound 0.0025 µM,0.478
same,relative viability,[3]; first compound 0.007906 µM,0.403
same,relative viability,[3]; first compound 0.025 µM,0.291
same,relative viability,[3]; first compound 0.07906 µM,0.414
same,relative viability,[3]; first compound 0.25 µM,0.406
same,relative viability,[4]; first compound 0.02 µM,0.513
same,relative viability,[4]; first compound 0.06325 µM,0.49
same,relative viability,[4]; first compound 0.2 µM,0.461
same,relative viability,[4]; first compound 0.6325 µM,0.536
same,relative viability,[4]; first compound 2 µM,0.494

# — the supplement of paper PMC10307832
